Experimental data reported in patent EP0007672A1, “Isocyanoalkenes, process and useful intermediates for their preparation, pharmaceutical and fungicidal preparations containing those isocyanoalkenes and the use of the fungicidal preparations in agriculture” (GIST-BROCADES N.V., priority 1978, dated 1980).
In brackets after ≈: the same amount, converted by molar mass. Like-named read-outs stand apart in the source and are kept apart here.

How the values were obtained:
storage stability = format: physicochemical
Text: Those compounds in which Rx or Ry is a hydrogen atom should be stored generally at lower temperatures, e.g. in a refrigerator. The 1-isocyano-l-p-toluenesulphonylethene (Rx and Ry hydrogen atoms) appears to be very unstable. Notwithstanding this the compound, in the reaction medium in which it must be present, could be converted with a primary amine into the corresponding imidazole, which in turn, may be converted into its ^picrate. This proves that 1-isocyano-i-p-toluenesulphonylethene exists.

Aspergillus flavus = assay: MIC (Minimum Inhibitory Concentration); format: cell-based; details: Aspergillus flavus A 2385
Aspergillus parasiticus = assay: MIC (Minimum Inhibitory Concentration); format: cell-based; details: for MIC: Aspergillus parasiticus A 2396; for MIC values: Aspergillus parasiticus A 2397
Aspergillus versiodor = assay: MIC (Minimum Inhibitory Concentration); format: cell-based; details: Aspergillus versiodor Nr. 7
Bacillus subtilis = assay: MIC (Minimum Inhibitory Concentration); format: cell-based; details: ATCC6633; Bacillus subtilis ATCC 6633
Candida albicans = assay: MIC (Minimum Inhibitory Concentration); format: cell-based
Diplococcus pneumoniae = assay: MIC (Minimum Inhibitory Concentration); format: cell-based; details: Streptococcus pneumoniae; Diplococcus pneumoniae A 2783
Fusarium = assay: MIC (Minimum Inhibitory Concentration); format: cell-based; details: Fusarium A 3241
Pasteurella multocida = assay: MIC (Minimum Inhibitory Concentration); format: cell-based; details: Pasteurella multocida A 723; read-out: MIC values
Penicillium islandicum = assay: MIC (Minimum Inhibitory Concentration); format: cell-based; details: Talaromyces islandicus; Penicillium islandicum D 189
Penicillium italicum = assay: MIC (Minimum Inhibitory Concentration); format: cell-based; details: Penicillium italicum 278-65
Penicillium patalum = assay: MIC (Minimum Inhibitory Concentration); format: cell-based; details: Penicillium patalum A 2389
Penicillium rubrum = assay: MIC (Minimum Inhibitory Concentration); format: cell-based; details: Talaromyces ruber; Penicillium rubrum A 2395
Penicillium veridicatum = assay: MIC (Minimum Inhibitory Concentration); format: cell-based; details: Penicillium veridicatum A 2370
Proteus morganii = assay: MIC (Minimum Inhibitory Concentration); format: cell-based; details: Morganella morganii; Proteus morganii 2241
Rhizoctonia solani = assay: MIC (Minimum Inhibitory Concentration); format: cell-based; details: Rhizoctonia solani 200-25; read-out: MIC values
Staphylococcus aureus = assay: MIC (Minimum Inhibitory Concentration); format: cell-based
Trichophyton equinum = assay: MIC (Minimum Inhibitory Concentration); format: cell-based
[1] = tested on: Trichophyton mentagrophytus; assay: MIC (Minimum Inhibitory Concentration); format: cell-based
Trichophyton quickeaneum = assay: MIC (Minimum Inhibitory Concentration); format: cell-based; details: Trichophyton quickeaneum A 2040; read-out: MIC values
Trichophyton rubrum = assay: MIC (Minimum Inhibitory Concentration); format: cell-based
[2] = tested on: Trichophyton schoenleinii; assay: MIC (Minimum Inhibitory Concentration); format: cell-based; details: Trichophyton schoenleinii 435-63; read-out: MIC values
[3] = tested on: Trichophyton soudanese joyeux; assay: MIC (Minimum Inhibitory Concentration); format: cell-based; details: Trichophyton soudanese joyeux 440-63; read-out: MIC values
Trichophyton tonsurans = assay: MIC (Minimum Inhibitory Concentration); format: cell-based; details: Trichophyton tonsurans 561-50; read-out: MIC values
Trichophyton verrucosum = assay: MIC (Minimum Inhibitory Concentration); format: cell-based
Trichophyton violoceum = assay: MIC (Minimum Inhibitory Concentration); format: cell-based; details: Trichophyton violoceum 442-62; read-out: MIC values
Fusarium (bulb) = assay: MIC (Minimum Inhibitory Concentration); format: cell-based; details: Fusarium (bulb) A 3252
Fusarium (tulip) = assay: MIC (Minimum Inhibitory Concentration); format: cell-based; details: Fusarium (tulip) A 3253
Fusarium solani = assay: MIC (Minimum Inhibitory Concentration); format: cell-based; details: Fusarium solani A 3245; read-out: MIC values
[4] = Candida albicans A 7, read-out: MIC values
[5] = Candida albicans A 3140, read-out: MIC values
[6] = Candida albicans A 3141, read-out: MIC values
[7] = Candida albicans A 3144, read-out: MIC values
[8] = Candida albicans A 3145, read-out: MIC values
[9] = Candida albicans A 3165, read-out: MIC values
[10] = Candida albicans A 3167, read-out: MIC values
[11] = Candida albicans A 3168, read-out: MIC values
[12] = Candida albicans A 3169, read-out: MIC values
[13] = Candida albicans A 3171, read-out: MIC values
[14] = Candida albicans A 3191, read-out: MIC values
[15] = Candida albicans A 3194, read-out: MIC values
[16] = Candida albicans A 3196, read-out: MIC values
[17] = Trichophyton equinum 182-76, read-out: MIC values
[18] = Trichophyton equinum 856-71, read-out: MIC values
[19] = Trichophyton mentagrophytus 367-68, read-out: MIC values
[20] = Trichophyton mentagrophytus 421-67, read-out: MIC values
[21] = Trichophyton mentagrophytus A 3252, read-out: MIC values
[22] = Trichophyton mentagrophytus R 177, read-out: MIC values
[23] = Trichophyton mentagrophytus R 178, read-out: MIC values
[24] = Trichophyton mentagrophytus RRL 305, read-out: MIC values
[25] = Trichophyton rubrum 218-65, read-out: MIC values
[26] = Trichophyton rubrum 494-62, read-out: MIC values
[27] = Trichophyton rubrum A 810, read-out: MIC values
[28] = Trichophyton verrucosum 134-66, read-out: MIC values
[29] = Trichophyton verrucosum A 2922, read-out: MIC values

In the case of [C-]#[N+]C(=C)S(=O)(=O)c1ccc(C)cc1 [Example 8, 1-isocyano-1-(4-toluenesulphonyl)-ethene], the stability (storage stability) is reported as “very unstable”.

[C-]#[N+]C(=C(C)c1ccco1)S(=O)(=O)c1ccc(C)cc1 [Example 13, 1-isocyano-2-(2-furanyl)-1-(4-toluenesulphonyl)-1-propene] showed an MIC (Aspergillus flavus) of 12.5 µg/mL (≈ 43.5 µM), an MIC (Aspergillus parasiticus) of 6 µg/mL (≈ 20.9 µM) and an MIC values (Aspergillus parasiticus) of 6 µg/mL (≈ 20.9 µM). The MIC (Aspergillus versiodor) was over 100 µg/mL, the MIC (Bacillus subtilis) was 1.5 µg/mL (≈ 5.22 µM) and the MIC (Candida albicans; [4]) was 0.1 µg/mL (≈ 0.348 µM). The MIC (Candida albicans; [5]) was 0.2 µg/mL (≈ 0.696 µM), the MIC (Candida albicans; [6]) was under 0.05 µg/mL and the MIC (Candida albicans; [7]) was 0.2 µg/mL (≈ 0.696 µM). It also gave an MIC (Candida albicans; [8]) of under 0.05 µg/mL, an MIC (Candida albicans; [9]) of 1.5 µg/mL (≈ 5.22 µM) and an MIC (Candida albicans; [10]) of 0.4 µg/mL (≈ 1.39 µM). It also gave an MIC (Candida albicans; [11]) of 0.2 µg/mL (≈ 0.696 µM), an MIC (Candida albicans; [12]) of 0.2 µg/mL (≈ 0.696 µM) and an MIC (Candida albicans; [13]) of under 0.05 µg/mL. It also gave an MIC (Candida albicans; Candida albicans A 3190, read-out: MIC values) of under 0.05 µg/mL, an MIC (Candida albicans; [14]) of under 0.05 µg/mL and an MIC (Candida albicans; [15]) of under 0.05 µg/mL. For the same compound, the MIC (Candida albicans; [16]) was under 0.05 µg/mL, the MIC (Diplococcus pneumoniae) was 12.5 µg/mL (≈ 43.5 µM) and the MIC (Fusarium) was 50 µg/mL (≈ 174 µM). The MIC (Pasteurella multocida) was 0.75 µg/mL (≈ 2.61 µM), the MIC (Penicillium islandicum) was 12.5 µg/mL (≈ 43.5 µM) and the MIC (Penicillium italicum) was 3 µg/mL (≈ 10.4 µM). For the same compound, the MIC (Penicillium patalum) was 25 µg/mL (≈ 87 µM), the MIC (Penicillium rubrum) was 25 µg/mL (≈ 87 µM) and the MIC (Penicillium veridicatum) was 3 µg/mL (≈ 10.4 µM). It also gave an MIC (Proteus morganii) of 12.5 µg/mL (≈ 43.5 µM), an MIC (Rhizoctonia solani) of 6 µg/mL (≈ 20.9 µM) and an MIC (Staphylococcus aureus; Staphylococcus aureus A 321) of 12.5 µg/mL (≈ 43.5 µM). The MIC (Staphylococcus aureus; Staphylococcus aureus A 355) was 6 µg/mL (≈ 20.9 µM), the MIC (Staphylococcus aureus; Staphylococcus aureus A 2000) was 6 µg/mL (≈ 20.9 µM) and the MIC (Trichophyton equinum; [17]) was 1.5 µg/mL (≈ 5.22 µM). The MIC (Trichophyton equinum; [18]) was 0.1 µg/mL (≈ 0.348 µM), the MIC [1, 19] was 3 µg/mL (≈ 10.4 µM) and the MIC [1, 20] was 3 µg/mL (≈ 10.4 µM). The MIC [1, 21] was 3 µg/mL (≈ 10.4 µM), the MIC [1, 22] was 3 µg/mL (≈ 10.4 µM) and the MIC [1, 23] was 12.5 µg/mL (≈ 43.5 µM). For the same compound, the MIC [1, 24] was 3 µg/mL (≈ 10.4 µM), the MIC (Trichophyton quickeaneum) was 0.4 µg/mL (≈ 1.39 µM) and the MIC (Trichophyton rubrum; [25]) was 0.8 µg/mL (≈ 2.78 µM). It also gave an MIC (Trichophyton rubrum; [26]) of 0.8 µg/mL (≈ 2.78 µM), an MIC (Trichophyton rubrum; [27]) of 0.8 µg/mL (≈ 2.78 µM) and an MIC [2] of 3 µg/mL (≈ 10.4 µM). The MIC [3] was 6 µg/mL (≈ 20.9 µM), the MIC (Trichophyton tonsurans) was 3 µg/mL (≈ 10.4 µM) and the MIC (Trichophyton verrucosum; [28]) was 0.8 µg/mL (≈ 2.78 µM). For the same compound, the MIC (Trichophyton verrucosum; [29]) was 3 µg/mL (≈ 10.4 µM) and the MIC (Trichophyton violoceum) was 3 µg/mL (≈ 10.4 µM).

For C[C@@H]1C/C=C/C=C/C=C/C=C/[C@H](O[C@@H]2O[C@H](C)[C@@H](O)[C@H](N)[C@@H]2O)C[C@@H]2O[C@](O)(C[C@@H](O)C[C@H]3O[C@@H]3/C=C/C(=O)O1)C[C@H](O)[C@H]2C(=O)O [natamycin, reference compound], the MIC (Aspergillus flavus) was 50 µg/mL (≈ 75.1 µM), the MIC (Aspergillus parasiticus) was 2.5 µg/mL (≈ 3.76 µM) and the MIC values (Aspergillus parasiticus) was 2.5 µg/mL (≈ 3.76 µM). The MIC (Aspergillus versiodor) was 6 µg/mL (≈ 9.01 µM), the MIC (Candida albicans; [4]) was 12.5 µg/mL (≈ 18.8 µM) and the MIC (Candida albicans; [5]) was 25 µg/mL (≈ 37.6 µM). For the same compound, the MIC (Candida albicans; [6]) was 3 µg/mL (≈ 4.51 µM), the MIC (Candida albicans; [7]) was 3 µg/mL (≈ 4.51 µM) and the MIC (Candida albicans; [8]) was 3 µg/mL (≈ 4.51 µM). For the same compound, the MIC (Candida albicans; [9]) was 25 µg/mL (≈ 37.6 µM), the MIC (Candida albicans; Candida albicans A 3166, read-out: MIC values) was 6 µg/mL (≈ 9.01 µM) and the MIC (Candida albicans; [10]) was 1.5 µg/mL (≈ 2.25 µM). It also gave an MIC (Candida albicans; [11]) of 12.5 µg/mL (≈ 18.8 µM), an MIC (Candida albicans; [12]) of 1.5 µg/mL (≈ 2.25 µM) and an MIC (Candida albicans; [13]) of 6 µg/mL (≈ 9.01 µM). For the same compound, the MIC (Candida albicans; [14]) was 6 µg/mL (≈ 9.01 µM), the MIC (Candida albicans; [15]) was 3 µg/mL (≈ 4.51 µM) and the MIC (Candida albicans; [16]) was 6 µg/mL (≈ 9.01 µM). It also gave an MIC (Fusarium (bulb)) of 6 µg/mL (≈ 9.01 µM), an MIC (Fusarium (tulip)) of 6 µg/mL (≈ 9.01 µM) and an MIC (Fusarium solani) of 9.3 µg/mL (≈ 14 µM). It also gave an MIC (Fusarium) of 3 µg/mL (≈ 4.51 µM), an MIC (Penicillium islandicum) of 3 µg/mL (≈ 4.51 µM) and an MIC (Penicillium italicum) of 3 µg/mL (≈ 4.51 µM). The MIC (Penicillium patalum) was 3 µg/mL (≈ 4.51 µM), the MIC (Penicillium rubrum) was 3 µg/mL (≈ 4.51 µM) and the MIC (Penicillium veridicatum) was 1.5 µg/mL (≈ 2.25 µM). For the same compound, the MIC (Rhizoctonia solani) was 2.3 µg/mL (≈ 3.45 µM), the MIC (Trichophyton equinum; [17]) was 25 µg/mL (≈ 37.6 µM) and the MIC (Trichophyton equinum; [18]) was 6 µg/mL (≈ 9.01 µM). The MIC [1, 19] was 12.5 µg/mL (≈ 18.8 µM), the MIC [1, 20] was 12.5 µg/mL (≈ 18.8 µM) and the MIC [1, 21] was 100 µg/mL (≈ 150 µM). The MIC [1, 22] was 50 µg/mL (≈ 75.1 µM), the MIC [1, 23] was 50 µg/mL (≈ 75.1 µM) and the MIC [1, 24] was 12.5 µg/mL (≈ 18.8 µM). For the same compound, the MIC (Trichophyton quickeaneum) was 12.5 µg/mL (≈ 18.8 µM), the MIC (Trichophyton rubrum; [25]) was 12.5 µg/mL (≈ 18.8 µM) and the MIC (Trichophyton rubrum; [26]) was 25 µg/mL (≈ 37.6 µM). The MIC (Trichophyton rubrum; [27]) was 12.5 µg/mL (≈ 18.8 µM), the MIC [2] was 25 µg/mL (≈ 37.6 µM) and the MIC [3] was 25 µg/mL (≈ 37.6 µM). It also gave an MIC (Trichophyton tonsurans) of 12.5 µg/mL (≈ 18.8 µM), an MIC (Trichophyton verrucosum; [28]) of 25 µg/mL (≈ 37.6 µM) and an MIC (Trichophyton verrucosum; [29]) of 25 µg/mL (≈ 37.6 µM). The MIC (Trichophyton violoceum) was 50 µg/mL (≈ 75.1 µM).
